From patent US8338089B2, “Method of inhibiting lentiviral infectivity utilizing zinc chelation to inhibit Vif activity” (The Johns Hopkins University, priority 2006, dated 2012)
Values joined by “and” are separate entries in the source; they are usually repeats but may differ in a detail not shown here. Equal entries are not always repeated.

Experiments:
lentivirus = assay: Inhibition in a method of the invention (lentiviral infectivity)
[1] = biological target: T1, HIV-1 Vif-Cul5 interaction (Human immunodeficiency virus type 1 group M subtype B, UniProt P69723); assay: Vif-HA immunoprecipitation and immunoblot for Cul5, ElonginB, ElonginC in Vif-expressing 293T cells; format: cell-based
T1 construct: expressed in transfected cells; host or cells: 293T
T1 sequence (Q15370 whole entry): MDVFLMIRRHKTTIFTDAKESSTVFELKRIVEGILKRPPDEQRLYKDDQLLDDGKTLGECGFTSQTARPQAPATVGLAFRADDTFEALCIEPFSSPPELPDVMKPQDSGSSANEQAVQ
T1 sequence (Q15369 whole entry, further chain): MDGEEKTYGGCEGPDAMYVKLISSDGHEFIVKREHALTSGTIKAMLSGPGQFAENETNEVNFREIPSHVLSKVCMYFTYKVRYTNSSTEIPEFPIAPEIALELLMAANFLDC
T1 sequence (Q13951 whole entry, further chain): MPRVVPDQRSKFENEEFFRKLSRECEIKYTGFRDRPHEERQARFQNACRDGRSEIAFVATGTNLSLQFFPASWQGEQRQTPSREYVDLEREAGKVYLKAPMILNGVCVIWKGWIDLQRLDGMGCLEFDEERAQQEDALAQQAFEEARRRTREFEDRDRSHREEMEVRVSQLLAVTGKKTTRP
T1 sequence (P69723 whole entry): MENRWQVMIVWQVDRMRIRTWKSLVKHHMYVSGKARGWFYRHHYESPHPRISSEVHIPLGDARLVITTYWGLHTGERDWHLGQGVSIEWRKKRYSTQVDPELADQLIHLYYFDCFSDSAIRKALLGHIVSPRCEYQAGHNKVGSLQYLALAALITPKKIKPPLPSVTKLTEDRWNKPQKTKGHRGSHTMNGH
Method: The Cul5-Vif E3 ubiquitin ligase binds A3G and brings it in close proximity with the E2 ubiquitin conjugating enzyme. Polyubiquitinated A3G is recognized by the proteasome and subsequently degraded. […] 293T cells were transfected with Vif-HA expression vectors as previously described and treated with the indicated amounts of TPEN. Vif-HA was immunoprecipitated and eluted materials were then analyzed by SDS-PAGE and immunoblotting for Cul5, Vif-HA, ElonginB, and ElonginC. […] 293T cells were transfected with Vif-HA and treated with the indicated amounts of TPEN. Cell lysates were harvested and analyzed by SDS-PAGE and immunoblotting for Cul5 and Vif-HA.
(§1) Medium was removed 12 h prior to harvesting cells and replaced with either fresh medium alone or medium containing the indicated concentration of TPEN (Sigma). After a 12-h incubation, the cells were harvested for immunoprecipitation and immunoblot analysis, or the medium was collected for MAGI assay.
Transfected 293T cells were harvested, washed twice with cold PBS, and lysed in lysis buffer (50 mM Tris, pH 7.5, with 150 mM NaCl, 1% Triton X-100, and complete protease inhibitor cocktail tablets) at 4° C. for 1 h, then centrifuged at 10,000×g for 30 min. For myc-tag immunoprecipitation, precleared cell lysates were mixed with anti-myc antibody (Upstate) and incubated with protein G at 4° C. for 3 h. For HA tag immunoprecipitation, precleared cell lysates were mixed with anti-HA antibody-conjugated agarose beads (Roche) and incubated at 4° C. for 3 h. Samples were then washed three times with washing buffer (20 mM Tris, pH 7.5, with 100 mM NaCl, 0.1 mM EDTA, and 0.05% Tween-20). The beads were eluted with elution buffer (0.1 M glycine-HCl, pH 2.0) or 2× loading buffer. The eluted materials were then analyzed by SDS-PAGE and immunoblotting as previously described (Yu et al. (2003) (supra)).

[2] = tested on: SIVagm Vif-Cul5 interaction; assay: SIVagm Vif immunoprecipitation and immunoblot in 293T cells; format: cell-based; conditions: 4 μM TPEN vs vehicle DMSO
Method: (§2) Hydrophobic residues are represented by a Phi (Φ). […] 293T cells were transfected with the indicated SIV Vif expression vectors and treated with 4 μM TPEN. Cell lysates were immunoprecipitated and analyzed by SDS-PAGE followed immunoblotting for Cul5, HA, ElonginB, and ElonginC. […] 293T cells were transfected with SOCS-3-HA and treated with 4 μM TPEN. Cell lysates were immunoprecipitated and analyzed by SDS-PAGE and immunoblotting.
as §1
(§3) Transfected 293T cells were harvested, washed twice with cold PBS, and lysed in lysis buffer (50 mM Tris, pH 7.5, with 150 mM NaCl, 1% Triton X-100, and complete protease inhibitor cocktail tablets) at 4° C. for 1 h, then centrifuged at 10,000×g for 30 min. For myc-tag immunoprecipitation, precleared cell lysates were mixed with anti-myc antibody (Upstate) and incubated with protein G at 4° C. for 3 h. […] The eluted materials were then analyzed by SDS-PAGE and immunoblotting as previously described (Yu et al. (2003) (supra)). […]

[3] = tested on: SIVsyk Vif-Cul5 interaction; assay: SIVsyk Vif immunoprecipitation and immunoblot in 293T cells; format: cell-based; conditions: 4 μM TPEN vs vehicle DMSO
Method: as §2, §1, §3

Cul5-SOCS-3 E3 ligase = biological target: T2, Cul5-SOCS-3 E3 ligase (Homo sapiens, UniProt O14543); assay: SOCS-3-HA immunoprecipitation and immunoblot in 293T cells; format: cell-based; conditions: 4 μM TPEN vs control DMSO
T2 construct: expressed in transfected cells; host or cells: 293T
T2 sequence (O14543 1-225): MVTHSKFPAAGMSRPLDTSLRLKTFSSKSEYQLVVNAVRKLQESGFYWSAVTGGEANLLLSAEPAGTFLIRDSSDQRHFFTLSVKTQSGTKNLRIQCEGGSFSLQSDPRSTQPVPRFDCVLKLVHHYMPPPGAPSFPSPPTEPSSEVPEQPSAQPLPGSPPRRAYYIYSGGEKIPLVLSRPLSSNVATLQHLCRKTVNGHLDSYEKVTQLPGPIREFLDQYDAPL
Method: as §2, §1, §3

[4] = tested on: HIV-1 Vif mediated A3G degradation; assay: Vif mediated A3G degradation in transfected 293T cells (immunoblot); format: cell-based
Method: (§4) 293T cells were transfected with the indicated plasmids in the presence of 4 μM TPEN or control vehicle. Cell lysates were analyzed for A3G degradation by SDS-PAGE followed by immunoblotting for A3G-HA, Vif-myc, and ribosomal p19 as a loading control. […] 293T cells were transfected with the indicated plasmids and treated with […] TPEN or control vehicle. Vif-HA was immunoprecipitated from prepared lysates. Lysates were analyzed by SDS-PAGE followed by immunoblotting for Vif-HA and A3G-myc. […] Cells were infected with WT or ΔVif NL4-3 virus in the presence of A3G-myc and treated with 4 μM TPEN or DMSO. Cells were harvested and virus was isolated from the supernatant by ultracentrifugation and analyzed by SDS PAGE and immunoblotting against Vif, myc, and p24. […] Adenovirus E4orf6 mediated p53 degradation is not affected by 4 μM TPEN. […] Cells were harvested and analyzed for p53 degradation by SDS-PAGE followed by immunoblotting for p53, E4orf6-myc, and ribosomal p19 as a loading control. […]
(§5) Transfected 293T cells were harvested, washed twice with cold PBS, and lysed in lysis buffer (50 mM Tris, pH 7.5, with 150 mM NaCl, 1% Triton X-100, and complete protease inhibitor cocktail tablets) at 4° C. for 1 h, then centrifuged at 10,000×g for 30 min. […] The eluted materials were then analyzed by SDS-PAGE and immunoblotting as previously described (Yu et al. (2003) (supra)). […]

Vif-A3G interaction = biological target: T3, Vif-A3G interaction (Human immunodeficiency virus type 1 group M subtype B, UniProt P69723); assay: Vif-A3G co-immunoprecipitation in 293T cells; format: cell-based, HIV-1; conditions: 4 μM TPEN vs control vehicle
T3 construct: expressed in transfected cells; host or cells: 293T
T3 sequence (Q9HC16 whole entry): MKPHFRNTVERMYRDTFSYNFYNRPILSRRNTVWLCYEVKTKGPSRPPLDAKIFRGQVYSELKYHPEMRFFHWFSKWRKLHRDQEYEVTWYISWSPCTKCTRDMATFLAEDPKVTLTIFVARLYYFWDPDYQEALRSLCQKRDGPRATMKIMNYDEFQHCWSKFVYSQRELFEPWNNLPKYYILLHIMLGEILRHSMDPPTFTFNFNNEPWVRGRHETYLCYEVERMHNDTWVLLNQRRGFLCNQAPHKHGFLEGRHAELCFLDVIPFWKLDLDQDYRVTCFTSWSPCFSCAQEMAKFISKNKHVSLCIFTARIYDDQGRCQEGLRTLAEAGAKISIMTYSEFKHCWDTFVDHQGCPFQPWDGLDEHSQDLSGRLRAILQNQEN
T3 sequence (P69723 whole entry): as the sequence (P69723 whole entry) above
T3 sequence (Q13951 whole entry, further chain): as the sequence (Q13951 whole entry, further chain) above
T3 sequence (Q15369 whole entry, further chain): as the sequence (Q15369 whole entry, further chain) above
T3 sequence (Q15370 whole entry, further chain): as the sequence (Q15370 whole entry) above
Method: as §4, §5

[5] = tested on: virion incorporation of A3G; assay: A3G levels in cells and virions, WT or ΔVif NL4-3 virus with A3G-myc; format: cell-based, HIV-1; conditions: 4 μM TPEN vs DMSO
Method: 293T cells were transfected with the indicated plasmids in the presence of 4 μM TPEN or control vehicle. Cell lysates were analyzed for A3G degradation by SDS-PAGE followed by immunoblotting for A3G-HA, Vif-myc, and ribosomal p19 as a loading control. […] 293T cells were transfected with the indicated plasmids and treated with […] TPEN or control vehicle. Vif-HA was immunoprecipitated from prepared lysates. Lysates were analyzed by SDS-PAGE followed by immunoblotting for Vif-HA and A3G-myc. […] Cells were infected with WT or ΔVif NL4-3 virus in the presence of A3G-myc and treated with 4 μM TPEN or DMSO. Cells were harvested and virus was isolated from the supernatant by ultracentrifugation and analyzed by SDS PAGE and immunoblotting against Vif, myc, and p24. […] Adenovirus E4orf6 mediated p53 degradation is not affected by 4 μM TPEN. 293T cells were transfected with p53 and E4orf6-myc expression vectors in the presence of 4 μM TPEN or control vehicle. Cells were harvested and analyzed for p53 degradation by SDS-PAGE followed by immunoblotting for p53, E4orf6-myc, and ribosomal p19 as a loading control.
Medium was removed 12 h prior to harvesting cells and replaced with either fresh medium alone or medium containing the indicated concentration of TPEN (Sigma). […]

[6] = tested on: Rbx function (E4orf6 mediated p53 degradation); assay: Adenovirus E4orf6 mediated p53 degradation in 293T cells (Rbx function); format: cell-based; conditions: 4 μM TPEN
Method: as §4, §5

[7] = tested on: NL4-3 virus infectivity in MAGI cells; assay: MAGI assay of virus infectivity, virus produced in 293T or 293T-A3G cells; format: cell-based, HIV-1
Method: MAGI cells were infected with wild-type or Vif deficient NL4-3 produced in the absence or presence of A3G and […] TPEN as indicated. Relative infectivity was calculated by setting wild type virus infectivity to 100% (lane 1).
293T and MAGI-CCR5 cells (Chackerian et al. (1997) J Virol 71, 3932-3939) were maintained and transfected or infected as previously described (Yu et al. (2003) (supra)). The MAGI assay was performed as described previously and the antibodies used in this study have been described: anti-HA antibody-agarose conjugate, anti-myc antibody-agarose conjugate, anti-Vif, anti-Elongin B, anti-Elongin C, anti-Myc, anti-HA, and anti-human ribosomal P antigens (Yu et al. (2003) (supra)). The anti-p53 mouse mAb was obtained from Oncogene Research Products (Cat. #OP03).
as §1
In order to assess the biological relevance of the zinc requirement in Vif-Cul5 interaction and assess whether A3G retained antiviral function in the presence of 7 μM TPEN, we studied the effect of TPEN on virus infectivity. MAGI cells were infected with wild type or Vif deficient virus produced in 293T or 293T-A3G cells in the presence of 7 μM TPEN or control DMSO. We set the infectivity of WT virus in the absence of A3G to 100%, and calculated the relative infectivity under all treated conditions (FIG. 4). As expected, in the presence of A3G and the absence of Vif, there was a drastic decrease of infectivity to 8% (FIG. 4, lane 4). However in the presence of Vif, A3G was neutralized resulting in 91% infectivity (FIG. 4, lane 3). One would expect zinc chelation to have an effect on virus infectivity independent of Vif function. We observed a modest decrease in infectivity, of about 15% even in the absence of A3G (FIG. 4, lanes, 5 and 6). […]

Compound | effectiveness as inhibitor in a method of the invention (lentivirus) | effect on cellular Cul5 protein levels ([1]; 293T cells transfected with Vif-HA, cell lysates) | IC50 ([1]; IC50, decrease of Cul5-Vif interaction, Vif-expressing 293T cells, increasing concentrations of TPEN, 12-h incubation) | interaction of Vif with ElonginB and ElonginC ([1]; Vif-expressing 293T cells, increasing concentrations of TPEN) | Cul5 co-immunoprecipitation with SIVagm Vif [2] | ElonginB and ElonginC detected with SIVagm Vif [2] | Cul5 co-immunoprecipitation with SIVsyk Vif [3] | ElonginB and ElonginC detected with SIVsyk Vif [3] | interaction of SOCS-3 with Cul5 (Cul5-SOCS-3 E3 ligase) | A3G expression or stability in the absence of HIV-1 Vif ([4]; 4 μM TPEN) | A3G degradation induced by HIV-1 Vif ([4]; 4 μM TPEN vs control vehicle) | effect on Vif-A3G interaction (Vif-A3G interaction) | A3G incorporation into virions in the presence of Vif [5] | cellular A3G protein levels in the presence of Vif [5] | p53 levels in the presence of E4orf6 [6] | decrease in infectivity in the absence of A3G ([7]; 7 μM TPEN on producer cells, relative to WT virus without A3G = 100%) | infectivity loss in the presence of A3G and Vif ([7]; 7 μM TPEN on producer cells, relative to WT virus without A3G = 100%, 91% infectivity without TPEN) | effect on A3G function ([7]; 7 μM TPEN, FIG. 4 lanes 7 and 8)
Oc1ccc(O)c(Cl)c1 [Chloroquinol] | not an effective inhibitor |  |  |  |  |  |  |  |  |  |  |  |  |  |  |  |  | 
c1ccc(CN(CCN(Cc2ccccn2)Cc2ccccn2)Cc2ccccn2)nc1 [TPEN, N,N,N′,N′-Tetrakis-(2-pyridylmethyl)ethylenediamine] |  | did not have any effect | ~1790 nM and 1790 nM | remained constant | marked decrease | equal amounts | marked decrease | equal amounts | equal interaction | no effect | abolished | no effect | enhancing incorporation | increased | declined | about 15% | about 87% | no effect
